Data published in ChEMBL document CHEMBL1125992, “Evaluation of bouvardin, deoxybouvardin, and RA-I - RA-VII partial structures: reassignment of the pharmacophore” (Bioorg Med Chem Lett, 1991).
≈ marks a conversion by molar mass, not a printed value. Starred links: 1 amine or outer side, 2 acyl side, 3 side chain; linkers in the order of their positions; H or OH if unused. Non-standard residues stand in square brackets, D forms with d. Residues, ends and D or L forms follow the SMILES beside them. ξ: configuration not given here. X1 = CN(CCc1ccc(Oc2cccc(CCC(=O)[*:2])c2)cc1)[*:1]; NMeY = CN[C@@H](Cc1ccc(O)cc1)C(=O)O; ξA = CC(N)C(=O)O

System: L1210
Assay: In vitro cytotoxicity against L1210 (murine leukemia) cells.
Type: functional, cell-based
Settings: Mus musculus

COc1ccc(C[C@H]2C(=O)N[C@@H](C)C(=O)N(C)[C@H]3Cc4ccc(cc4)Oc4cc(ccc4O)C[C@@H](C(=O)N[C@H](C)C(=O)N[C@@H](C)C(=O)N2C)N(C)C3=O)cc1
IC50: 0.002 µg/mL (≈ 0.00264 µM)

COc1ccc(C[C@H]2C(=O)N[C@@H](C)C(=O)N(C)[C@@H](Cc3ccc(O)cc3)C(=O)N(C)[C@@H](Cc3ccc(O)cc3)C(=O)N[C@H](C)C(=O)N[C@@H](C)C(=O)N2C)cc1
IC50: > 100 µg/mL

COc1ccc(C[C@H]2C(=O)N[C@@H](C)C(=O)N(C)CCc3ccc(cc3)Oc3cccc(c3)CCC(=O)NC(C)C(=O)N[C@@H](C)C(=O)N2C)cc1 (stereo partly specified) (cyclo(A[NMeY](Me)A[X1][ξA]))
IC50: 20 µg/mL (≈ 29.2 µM)

COc1ccc(C[C@H]2C(=O)N[C@@H](C)C(=O)N(C)Cc3ccccc3CC(=O)N[C@H](C)C(=O)N[C@@H](C)C(=O)N2C)cc1
IC50: 25 µg/mL (≈ 44.2 µM)

COC(=O)[C@@H]1Cc2ccc(OC)c(c2)Oc2ccc(cc2)C[C@H](N(C)C(=O)OC(C)(C)C)C(=O)N1C
IC50: 0.03 µg/mL (≈ 0.0602 µM)

COc1ccc(C[C@H]2C(=O)N[C@@H](C)C(=O)N(C)[C@H]3Cc4ccc(cc4)Oc4cc(ccc4OC)C[C@H](NC3=O)C(=O)N[C@H](C)C(=O)N[C@@H](C)C(=O)N2C)cc1
IC50: 0.001 µg/mL (≈ 0.00132 µM)

COC(=O)[C@@H]1Cc2ccc(O)c(c2)Oc2ccc(cc2)CCC(=O)N1
IC50: > 100 µg/mL

COc1ccc(C[C@H]2C(=O)N[C@@H](C)C(=O)N(C)[C@H]3C(=O)N(C)[C@H]3C(=O)NC(C)C(=O)N[C@@H](C)C(=O)N2C)cc1 (stereo partly specified)
IC50: 50 µg/mL (≈ 91.8 µM)

COC(=O)[C@@H]1Cc2ccc(OC)c(c2)Oc2ccc(cc2)CCC(=O)N1
IC50: > 100 µg/mL

COC(=O)[C@@H]1Cc2ccc(OC)c(c2)Oc2ccc(cc2)C[C@H](N(C)C(=O)OCc2ccccc2)C(=O)N1C
IC50: 0.04 µg/mL (≈ 0.0751 µM)

COc1ccc2cc1Oc1ccc(cc1)CCC(=O)N(C)CC2
IC50: > 100 µg/mL

O=C1CCc2ccc(cc2)Oc2cccc(c2)CCN1
IC50: > 100 µg/mL

COC(=O)[C@@H]1Cc2ccc(OC)c(c2)Oc2ccc(cc2)C[C@H](N(C)C(=O)OCc2ccccc2)C(=O)N1
IC50: 0.05 µg/mL (≈ 0.0964 µM)

COC(=O)[C@@H]1Cc2ccc(OC)c(c2)Oc2ccc(cc2)C[C@H](N(C)C(=O)OC(C)(C)C)C(=O)N1
IC50: 0.06 µg/mL (≈ 0.124 µM)

COc1ccc(C[C@H]2C(=O)N[C@@H](C)C(=O)N(C)CC(=O)N(C)CC(=O)N[C@H](C)C(=O)N[C@@H](C)C(=O)N2C)cc1
IC50: > 100 µg/mL

COC(=O)[C@@H]1Cc2ccc(cc2)Oc2cc(ccc2OC(=O)c2ccccc2)C[C@H](N(C)C(=O)OCc2ccccc2)C(=O)NC(C)C(=O)N[C@@H](C)C(=O)N(C)[C@@H](Cc2ccc(OC)cc2)C(=O)N[C@@H](C)C(=O)N1C (stereo partly specified)
IC50: 10 µg/mL (≈ 9.74 µM)

COc1ccc(C[C@H]2C(=O)N[C@@H](C)C(=O)N[C@H](C)C(=O)N[C@@H](C)C(=O)N2C)cc1
IC50: 20 µg/mL (≈ 49.4 µM)

CN1CCc2cccc(c2)Oc2ccc(cc2)CCC1=O
IC50: > 100 µg/mL

COc1ccc2cc1Oc1ccc(cc1)CCC(=O)NCC2
IC50: > 100 µg/mL

CN[C@H]1Cc2ccc(O)c(c2)Oc2ccc(cc2)C[C@@H](C(=O)O)N(C)C(=O)[C@H](C)NC(=O)[C@H](Cc2ccc(OC)cc2)N(C)C(=O)[C@H](C)NC(=O)[C@@H](C)NC1=O
IC50: 10 µg/mL (≈ 12.9 µM)

COc1ccc(C[C@H]2C(=O)N[C@@H](C)C(=O)N(C)[C@H]3Cc4ccc(cc4)Oc4cc(ccc4OC)C[C@@H](C(=O)N[C@H](C)C(=O)N[C@@H](C)C(=O)N2C)N(C)C3=O)cc1
IC50: 0.002 µg/mL (≈ 0.00259 µM)
